The results in this text go back to patent US6265578A, “Pyrimidine-2,4,6-triones” (Hoffmann-La Roche Inc., priority 2000, dated 2001).

Holding throughout (assay type): biochemical
For test [1], the target named is T1, human collagenase-3 (catalytic domain) (Homo sapiens, UniProt P45452).
T1 construct: ubiquitin (cleaved yes); made in house; host or cells: bacterial expression system (analogous to matrilysin)
Put plainly: IC50 for inhibition of the catalytic domain of human collagenase-3, fluorogenic peptide cleavage assay (Coll-3).
Description: Human matrilysin was obtained from a bacterial expression system as a ubiquitin fusion construct Welch, A. R., Holman, C. […] The mature form of matrilysin was purified following activation with 1 mM APMA (1 hour, 37° C.) and the active enzyme stored at -80° C. The catalytic domain of human collagenase-3 was obtained in a manner analogous to that for matrilysin. The final form of collagenase-3 used for these studies consisted of the residues Tyr104 -Asn274 from the full length collagenase sequence.
For matrilysin and the catalytic domain of collagenase-3, the buffer composition was pH 7.5, 50 mM Hepes, 200 mM NaCl, 5 mM CaCl2, 20 μM ZnCl2, 0.05% (wt/v) Brij-35. The final substrate concentration in all cases 10 μM. The approximate concentrations for the enzymes were: gelatinase-A, 0.8 nM; gelatinase-B, 0.5 nM; collagenase-3, 0.4 nM; matrilysin, 10 nM. To perform the peptide cleavage assay, the vessel containing buffer and compound of formula I were pre-equilibrated at 37° C., then the reaction initiated by successive addition of concentrated stocks of enzyme and substrate, and incubation at 37° C. was continued. At successive time points between 30 and 120 minutes, 50 μL aliquots of the assays were pulled and the enzymatic reaction stopped by addition to 150 μL of 30 mM EDTA (pH 7.4) in the well of a black, flat bottom microtiter plate.
% inh[I]=100(1-rate[I]/ratePC)
(§2) % inh[I]=percent inhibition at inhibitor concentration [I]
(§3) rate[I]=rate at inhibitor concentration [I]
ratePC=rate of positive control […]

Test [2] relates to human stromelysin-1 (catalytic domain). Description: IC50 for inhibition of the catalytic domain of human stromelysin-1, fluorogenic substrate assay (Strom-1). Conditions: pH 6.5, ambient temperature, 60 min, 10 μM substrate, 10 nM enzyme. How it is done:
(§1) Human 72 kDa gelatinase was purified from the conditioned media of fetal lung fibroblasts according to known methods. The enzyme was stored in the pro-form at -80° C. and activated prior to use by treatment with 1 mM aminophenyl mercuriacetate (APMA) for 1 hour at 37° C., then dialyzed against reaction buffer before use. Human neutrophil gelatinase (95 kDa gelatinase) was purified from conditioned media of NSO-cells according to known methods. This enzyme was likewise stored in the zymogen form at -80° C. It was activated by treatment with trypsin (5 μg/mL) for 1 hour at 37° C., followed by addition of bovine pancreatic trypsin inhibitor to 50 μg/mL. Human matrilysin was obtained from a bacterial expression system as a ubiquitin fusion construct Welch, A. R., Holman, C. M., Browner, M. F., Gehring, M. R., Kan, C.-C., & Van Wart, H. E. (1995) Arch. Biochem. Biophys. 324, 59-64. The mature form of matrilysin was purified following activation with 1 mM APMA (1 hour, 37° C.) and the active enzyme stored at -80° C. The catalytic domain of human collagenase-3 was obtained in a manner analogous to that for matrilysin. The final form of collagenase-3 used for these studies consisted of the residues Tyr104 -Asn274 from the full length collagenase sequence. The catalytic domain of human stromelysin-1 was produced via E. coli expression and purification according to known methods; the activated, catalytic domain was stored at -80° C.
The assay methods utilized the fluorogenic substrate: Dnp-Pro-Cha-Gly-Cys(Me)-His-Ala-Lys(NMA)-NH2. […]
Measurements for stromelysin-1: the catalytic domain of stromelysin-1 was tested using the same substrate but with a modified protocol. […] The reaction was started by addition of an aliquot of enzyme stock and the generated fluorescence was read directly after 60 minutes. […] The % inh[I] was calculated as: […]
where Fluor[I]=corrected fluorescence at 60 minutes observed for inhibitor concentration [I]
FluorPC=corrected fluorescence at 60 minutes observed for the positive control […]

The target of test [3] is T2, gelatinase-A (human 72 kDa gelatinase) (Homo sapiens, UniProt P08253).
T2 construct: endogenous in cells; host or cells: fetal lung fibroblasts (purified from conditioned media)
T2 sequence (P08253 110-660): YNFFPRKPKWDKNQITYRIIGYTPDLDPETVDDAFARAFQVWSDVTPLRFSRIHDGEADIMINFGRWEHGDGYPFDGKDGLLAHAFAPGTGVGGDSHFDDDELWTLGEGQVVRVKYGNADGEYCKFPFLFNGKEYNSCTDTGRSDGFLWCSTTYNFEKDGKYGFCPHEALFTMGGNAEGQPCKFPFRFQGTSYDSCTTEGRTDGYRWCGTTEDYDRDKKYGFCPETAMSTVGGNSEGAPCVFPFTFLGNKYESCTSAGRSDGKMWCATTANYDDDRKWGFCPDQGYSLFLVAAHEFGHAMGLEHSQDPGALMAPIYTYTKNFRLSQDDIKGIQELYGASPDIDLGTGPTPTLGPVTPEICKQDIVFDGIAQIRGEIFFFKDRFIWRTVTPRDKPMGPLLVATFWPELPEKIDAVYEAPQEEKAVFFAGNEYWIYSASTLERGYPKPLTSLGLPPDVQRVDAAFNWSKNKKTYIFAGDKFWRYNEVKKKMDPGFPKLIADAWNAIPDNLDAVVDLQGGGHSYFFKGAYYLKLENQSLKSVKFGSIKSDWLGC
Put plainly: IC50 for inhibition of gelatinase-A (human 72 kDa gelatinase), fluorogenic peptide cleavage assay (GelA). How it is done: as §1
The assay methods utilized the fluorogenic substrate: Dnp-Pro-Cha-Gly-Cys(Me)-His-Ala-Lys(NMA)-NH2. (Dnp=dinitro phenyl; Cha=cyclohexylalanine; Cys(Me)=S-methyl cysteine, Lys(NMA)=N^ε-methyl-anthranoyl-1-lysine). Stock solutions were prepared in DMSO. Stock solutions of compounds of formula I (inhibitor) were also prepared in DMSO.
For gelatinase-A and gelatinase-B, the buffer was pH 7.5, 50 mM TrisHCl, 200 mM NaCl, 5 mM CaCl2, 20 μM ZnCl2, 0.05% (wt/v) Brij-35. For matrilysin and the catalytic domain of collagenase-3, the buffer composition was pH 7.5, 50 mM Hepes, 200 mM NaCl, 5 mM CaCl2, 20 μM ZnCl2, 0.05% (wt/v) Brij-35. The final substrate concentration in all cases 10 μM. The approximate concentrations for the enzymes were: gelatinase-A, 0.8 nM; gelatinase-B, 0.5 nM; collagenase-3, 0.4 nM; matrilysin, 10 nM. […] The extent of substrate conversion was determined by reading the fluorescence of the stopped reactions (excitation wavelength: 355 nm; emission wavelength: […]).
A rate at each inhibitor concentration was obtained from a linear least squares fit to the fluorescence time course. The percent inhibition at inhibitor concentration [I] was calculated as: […]

Test [4] has as its target T3, gelatinase-B (human neutrophil gelatinase, 95 kDa gelatinase) (Homo sapiens, UniProt P14780).
T3 construct: made in house; host or cells: NSO-cells (purified from conditioned media)
Description: IC50 for inhibition of gelatinase-B (human neutrophil gelatinase, 95 kDa), fluorogenic peptide cleavage assay (GelB).
Description: For gelatinase-A and gelatinase-B, the buffer was pH 7.5, 50 mM TrisHCl, 200 mM NaCl, 5 mM CaCl2, 20 μM ZnCl2, 0.05% (wt/v) Brij-35. […] The final substrate concentration in all cases 10 μM. The approximate concentrations for the enzymes were: gelatinase-A, 0.8 nM; gelatinase-B, 0.5 nM; collagenase-3, 0.4 nM; matrilysin, 10 nM. To perform the peptide cleavage assay, the vessel containing buffer and compound of formula I were pre-equilibrated at 37° C., then the reaction initiated by successive addition of concentrated stocks of enzyme and substrate, and incubation at 37° C. was continued. At successive time points between 30 and 120 minutes, 50 μL aliquots of the assays were pulled and the enzymatic reaction stopped by addition to 150 μL of 30 mM EDTA (pH 7.4) in the well of a black, flat bottom microtiter plate. The extent of substrate conversion was determined by reading the fluorescence of the stopped reactions (excitation wavelength: 355 nm; emission wavelength: 460 nM).
% inh[I]=100(1-rate[I]/ratePC)
as §2, §3
ratePC=rate of positive control […]

Setting [5] is: catalytic domain, pH 7.5, 37° C., 10 μM substrate, 0.4 nM enzyme, 5% DMSO, read-out: IC50 Coll-3.

Where two headings read alike, the source gives them in different places.

T3 sequence (P14780 107-707 limits assumed): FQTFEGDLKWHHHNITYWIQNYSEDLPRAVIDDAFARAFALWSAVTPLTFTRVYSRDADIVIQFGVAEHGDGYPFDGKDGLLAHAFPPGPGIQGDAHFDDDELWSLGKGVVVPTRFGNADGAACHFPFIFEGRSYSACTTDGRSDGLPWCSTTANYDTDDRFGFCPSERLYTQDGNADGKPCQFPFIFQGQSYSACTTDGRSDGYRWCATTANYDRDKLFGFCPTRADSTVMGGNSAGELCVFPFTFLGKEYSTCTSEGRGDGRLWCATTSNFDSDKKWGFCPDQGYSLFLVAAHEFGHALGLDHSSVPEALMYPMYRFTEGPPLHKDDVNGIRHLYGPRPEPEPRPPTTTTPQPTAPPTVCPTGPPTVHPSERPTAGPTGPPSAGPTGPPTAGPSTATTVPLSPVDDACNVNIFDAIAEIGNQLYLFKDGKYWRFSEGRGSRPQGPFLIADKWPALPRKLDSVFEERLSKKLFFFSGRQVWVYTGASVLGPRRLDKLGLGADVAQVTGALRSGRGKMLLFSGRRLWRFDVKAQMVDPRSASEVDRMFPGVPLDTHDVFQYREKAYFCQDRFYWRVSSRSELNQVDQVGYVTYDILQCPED

For the compound `O=C1NC(=O)C(COCc2ccccc2)(c2ccc(Oc3ccccc3)cc2)C(=O)N1` [C, 5-benzyloxymethyl-5-(4-phenoxyphenyl)pyrimidine-2,4,6-trione], the concentration for half-maximal inhibition (IC50) in test [1] came to 47 nM; in test [2] (value in nM), 930 nM; in test [3] it was 26 nM; in test [4], 23 nM.
Consider `O=C1NC(=O)C(CCO)(c2ccc(Oc3ccccc3)cc2)C(=O)N1` [D, 5-(2-hydroxyethyl)-5-(4-phenoxyphenyl)pyrimidine-2,4,6-trione], for which the IC50 in test [3] (pH 7.5, 37° C., 10 μM substrate, 0.8 nM enzyme, 5% DMSO, read-out: IC50 GelA) was found to be 59 nM.
For `CC1(c2ccc(Oc3ccccc3)cc2)C(=O)NC(=O)NC1=O` [A, 5-methyl-5-(4-phenoxyphenyl)pyrimidine-2,4,6-trione], the IC50 in test [1] (setting [5]) is 65 nM; in test [2] it was 2000 nM; in test [3] it was 80 nM; in test [4] (pH 7.5, 37° C., 10 μM substrate, 0.5 nM enzyme, 5% DMSO, read-out: IC50 GelB) it was 52 nM.
`CCCCCCC1(c2ccc(Oc3ccccc3)cc2)C(=O)NC(=O)NC1=O` [B, 5-hexyl-5-(4-phenoxyphenyl)pyrimidine-2,4,6-trione]: the IC50 in test [1] (setting [5]) amounted to 78 nM; in test [2] it was 2000 nM; in test [3] it was 67 nM; in test [4], 50 nM.

By IC50 is commonly meant the point on the concentration scale where inhibition reaches its midpoint.
